Assay results as given in ChEMBL document CHEMBL5252513, “Identification of a Benzoisoxazoloazepine Inhibitor (CPI-0610) of the Bromodomain and Extra-Terminal (BET) Family as a Candidate for Human Clinical Trials” (J Med Chem, 2016).
The source made the active and inactive calls. The rule behind the calls is not given here.

What was measured:
[1] = target: Histone acetyltransferase KAT2B (Homo sapiens, UniProt Q92831); test: Binding affinity to PCAF bromodomain (unknown origin) incubated for 60 mins by TR-FRET assay
[2] = target: T1, Bromodomain-containing protein 8 (Homo sapiens, UniProt Q9H0E9); test: Displacement of biotinylated JQ1 from BRD8 bromodomain (unknown origin) incubated for 20 mins by AlphaLISA assay
[3] = target: T2, ATPase family AAA domain-containing protein 2 (Homo sapiens, UniProt Q6PL18); test: Displacement of biotinylated JQ1 from ATAD2 bromodomain (unknown origin) incubated for 20 mins by AlphaLISA assay
T2 sequence (Q6PL18 whole entry): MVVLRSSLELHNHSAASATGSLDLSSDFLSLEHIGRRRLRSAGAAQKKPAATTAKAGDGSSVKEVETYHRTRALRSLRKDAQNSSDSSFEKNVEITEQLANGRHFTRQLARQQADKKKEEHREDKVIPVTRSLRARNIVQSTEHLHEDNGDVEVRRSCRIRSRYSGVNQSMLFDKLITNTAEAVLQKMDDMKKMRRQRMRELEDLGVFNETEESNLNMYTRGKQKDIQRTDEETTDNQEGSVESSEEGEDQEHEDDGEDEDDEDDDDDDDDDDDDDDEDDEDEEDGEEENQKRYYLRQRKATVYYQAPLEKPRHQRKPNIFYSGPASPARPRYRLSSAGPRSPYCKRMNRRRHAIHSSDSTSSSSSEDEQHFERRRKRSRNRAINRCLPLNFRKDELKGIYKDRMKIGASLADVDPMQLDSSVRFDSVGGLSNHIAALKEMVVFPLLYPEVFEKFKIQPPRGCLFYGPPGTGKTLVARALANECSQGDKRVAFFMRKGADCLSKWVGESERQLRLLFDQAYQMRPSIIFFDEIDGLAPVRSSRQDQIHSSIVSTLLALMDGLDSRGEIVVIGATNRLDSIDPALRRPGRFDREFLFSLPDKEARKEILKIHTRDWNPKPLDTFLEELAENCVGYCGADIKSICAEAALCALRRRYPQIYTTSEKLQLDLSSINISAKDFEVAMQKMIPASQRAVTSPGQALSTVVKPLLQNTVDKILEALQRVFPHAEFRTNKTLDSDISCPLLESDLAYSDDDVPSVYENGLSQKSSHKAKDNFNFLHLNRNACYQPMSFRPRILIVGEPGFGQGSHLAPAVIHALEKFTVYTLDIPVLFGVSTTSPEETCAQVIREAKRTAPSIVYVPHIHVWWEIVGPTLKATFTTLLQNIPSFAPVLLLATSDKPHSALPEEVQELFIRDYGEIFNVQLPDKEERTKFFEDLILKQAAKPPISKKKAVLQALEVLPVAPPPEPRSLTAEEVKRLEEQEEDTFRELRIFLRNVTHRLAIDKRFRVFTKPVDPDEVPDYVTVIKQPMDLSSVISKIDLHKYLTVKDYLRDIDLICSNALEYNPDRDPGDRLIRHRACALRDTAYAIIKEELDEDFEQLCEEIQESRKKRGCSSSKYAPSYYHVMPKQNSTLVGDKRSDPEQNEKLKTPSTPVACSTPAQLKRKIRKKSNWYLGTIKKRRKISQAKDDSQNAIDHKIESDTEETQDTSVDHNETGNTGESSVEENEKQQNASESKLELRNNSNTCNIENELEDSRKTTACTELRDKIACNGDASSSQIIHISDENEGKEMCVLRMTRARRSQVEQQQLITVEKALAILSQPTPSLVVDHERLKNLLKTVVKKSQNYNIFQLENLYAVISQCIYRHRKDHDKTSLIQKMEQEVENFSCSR

[4] = target: T3, Peregrin (Homo sapiens, UniProt P55201); test: Displacement of biotinylated JQ1 from BRPF1 bromodomain (unknown origin) incubated for 20 mins by AlphaLISA assay
T3 sequence (P55201 whole entry): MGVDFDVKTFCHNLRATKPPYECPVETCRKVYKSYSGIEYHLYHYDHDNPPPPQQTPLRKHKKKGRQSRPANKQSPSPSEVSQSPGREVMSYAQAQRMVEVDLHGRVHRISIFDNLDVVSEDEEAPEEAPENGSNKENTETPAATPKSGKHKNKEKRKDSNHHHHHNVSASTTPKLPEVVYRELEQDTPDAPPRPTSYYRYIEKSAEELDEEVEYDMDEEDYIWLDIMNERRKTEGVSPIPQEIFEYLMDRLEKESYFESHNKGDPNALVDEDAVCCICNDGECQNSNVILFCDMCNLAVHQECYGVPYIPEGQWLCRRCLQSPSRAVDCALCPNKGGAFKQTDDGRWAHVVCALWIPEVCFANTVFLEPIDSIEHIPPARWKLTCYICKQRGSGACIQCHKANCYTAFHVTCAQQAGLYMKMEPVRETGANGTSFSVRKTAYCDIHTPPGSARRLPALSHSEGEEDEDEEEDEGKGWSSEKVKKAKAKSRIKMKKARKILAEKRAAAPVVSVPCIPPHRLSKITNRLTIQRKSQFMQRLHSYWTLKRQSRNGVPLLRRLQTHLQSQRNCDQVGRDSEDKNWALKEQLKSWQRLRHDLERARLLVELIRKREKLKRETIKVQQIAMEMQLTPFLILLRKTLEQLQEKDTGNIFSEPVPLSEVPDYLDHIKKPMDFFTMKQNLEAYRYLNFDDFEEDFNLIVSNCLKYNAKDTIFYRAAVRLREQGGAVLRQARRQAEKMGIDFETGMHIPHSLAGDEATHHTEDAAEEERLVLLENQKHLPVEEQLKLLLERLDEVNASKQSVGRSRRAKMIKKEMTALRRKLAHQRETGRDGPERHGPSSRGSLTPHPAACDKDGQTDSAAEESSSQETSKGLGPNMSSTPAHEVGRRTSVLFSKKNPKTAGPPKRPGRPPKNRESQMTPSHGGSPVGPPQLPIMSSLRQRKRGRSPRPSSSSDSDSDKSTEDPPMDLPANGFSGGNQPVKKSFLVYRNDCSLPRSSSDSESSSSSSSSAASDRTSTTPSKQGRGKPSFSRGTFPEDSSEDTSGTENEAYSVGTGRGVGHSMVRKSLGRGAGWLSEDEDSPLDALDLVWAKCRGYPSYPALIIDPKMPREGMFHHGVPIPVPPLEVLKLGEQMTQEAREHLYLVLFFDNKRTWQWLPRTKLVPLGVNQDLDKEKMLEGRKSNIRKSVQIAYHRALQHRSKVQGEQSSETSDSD

[5] = Half life in rat plasma at 1 mg/kg,iv; format: ADME, organism-based
[6] = Intrinsic clearance in rat liver microsomes; format: ADME, Microsome
[7] = Tmax in human patient with progression lymphoma at 300 mg,po QD consecutively for 14 days; format: ADME; settings: in vivo, time 14 day
[8] = target: T2, ATPase family AAA domain-containing protein 2; test: Binding affinity to ATAD2 bromodomain (unknown origin) incubated for 60 mins by TR-FRET assay
[9] = target: T1, Bromodomain-containing protein 8; test: Binding affinity to BRD8 bromodomain (unknown origin) incubated for 60 mins by TR-FRET assay
[10] = test system: MV4-11; test: Antitumor activity against human MV4-11 cells xenografted in BALB/c mouse assessed as slower tumor regrowth after drug therapy removal at 10 mg/kg,sc BID in presence of doxorubicin at 2 mg/kg,iv BIW for 28 days; format: functional, organism-based; settings: time 28.0 day

T1 sequence (Q9H0E9 whole entry, the tested form may be a part): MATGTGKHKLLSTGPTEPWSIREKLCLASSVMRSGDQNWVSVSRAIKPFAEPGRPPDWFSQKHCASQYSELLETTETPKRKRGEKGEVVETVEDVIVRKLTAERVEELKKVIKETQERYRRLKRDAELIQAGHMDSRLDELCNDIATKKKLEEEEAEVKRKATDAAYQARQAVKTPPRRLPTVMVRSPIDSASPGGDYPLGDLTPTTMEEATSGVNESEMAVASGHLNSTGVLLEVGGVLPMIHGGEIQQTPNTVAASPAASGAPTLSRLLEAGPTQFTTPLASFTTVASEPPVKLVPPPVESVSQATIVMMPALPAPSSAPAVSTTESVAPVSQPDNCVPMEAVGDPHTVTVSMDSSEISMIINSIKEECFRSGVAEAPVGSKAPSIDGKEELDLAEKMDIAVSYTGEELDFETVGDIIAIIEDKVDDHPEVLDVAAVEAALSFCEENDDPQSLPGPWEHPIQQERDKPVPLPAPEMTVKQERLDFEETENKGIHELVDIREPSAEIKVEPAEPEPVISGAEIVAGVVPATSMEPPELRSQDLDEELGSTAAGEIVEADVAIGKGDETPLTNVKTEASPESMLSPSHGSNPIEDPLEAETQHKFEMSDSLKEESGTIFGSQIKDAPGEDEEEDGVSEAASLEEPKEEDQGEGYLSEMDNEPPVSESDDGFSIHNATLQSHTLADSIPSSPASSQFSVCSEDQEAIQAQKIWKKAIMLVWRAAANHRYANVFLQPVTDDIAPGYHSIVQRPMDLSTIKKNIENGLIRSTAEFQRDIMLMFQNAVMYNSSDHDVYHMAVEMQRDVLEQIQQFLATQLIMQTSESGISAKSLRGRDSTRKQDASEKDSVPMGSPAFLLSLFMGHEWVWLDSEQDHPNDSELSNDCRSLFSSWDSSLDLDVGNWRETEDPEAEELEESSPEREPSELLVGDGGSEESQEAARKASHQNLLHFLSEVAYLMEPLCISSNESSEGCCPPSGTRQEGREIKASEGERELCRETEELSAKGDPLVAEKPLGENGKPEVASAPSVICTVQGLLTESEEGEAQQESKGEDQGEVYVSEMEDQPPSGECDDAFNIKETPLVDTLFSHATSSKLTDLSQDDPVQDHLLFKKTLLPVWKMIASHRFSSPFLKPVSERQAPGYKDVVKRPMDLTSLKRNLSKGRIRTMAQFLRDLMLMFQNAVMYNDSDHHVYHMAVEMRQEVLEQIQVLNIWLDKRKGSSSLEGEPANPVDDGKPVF
Sequence of Histone acetyltransferase KAT2B (Q92831 whole entry): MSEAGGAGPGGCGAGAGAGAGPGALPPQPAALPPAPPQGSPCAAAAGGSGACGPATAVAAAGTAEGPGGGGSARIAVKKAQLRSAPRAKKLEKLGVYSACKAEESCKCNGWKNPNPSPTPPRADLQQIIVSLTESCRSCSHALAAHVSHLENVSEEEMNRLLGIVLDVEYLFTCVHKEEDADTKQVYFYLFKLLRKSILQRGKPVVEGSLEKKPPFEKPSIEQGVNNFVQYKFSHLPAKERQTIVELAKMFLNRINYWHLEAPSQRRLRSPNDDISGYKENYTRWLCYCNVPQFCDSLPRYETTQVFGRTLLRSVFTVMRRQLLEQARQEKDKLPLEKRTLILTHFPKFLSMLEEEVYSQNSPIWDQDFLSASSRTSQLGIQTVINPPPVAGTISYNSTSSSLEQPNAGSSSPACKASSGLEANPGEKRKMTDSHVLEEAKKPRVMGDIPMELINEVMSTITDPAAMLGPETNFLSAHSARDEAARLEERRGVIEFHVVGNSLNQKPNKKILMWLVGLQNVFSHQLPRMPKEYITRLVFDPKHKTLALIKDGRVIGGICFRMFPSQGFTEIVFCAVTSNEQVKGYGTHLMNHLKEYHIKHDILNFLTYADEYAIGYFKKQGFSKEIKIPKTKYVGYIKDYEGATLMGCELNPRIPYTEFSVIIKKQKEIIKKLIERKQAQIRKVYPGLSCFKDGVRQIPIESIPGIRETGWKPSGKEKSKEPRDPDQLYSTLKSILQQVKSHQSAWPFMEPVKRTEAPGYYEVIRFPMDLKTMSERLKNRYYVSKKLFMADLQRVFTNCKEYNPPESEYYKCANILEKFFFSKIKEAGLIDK

IC50 [1]: > 20 µM
IC50 [2]: > 15 µM
IC50 [3]: > 80 µM
IC50 [4]: > 20 µM
half-life [5]: 0.93 h
predicted hepatic clearance (CLH) [6]: 21 mL/min/kg
Tmax [7]: 1.8 h
IC50 [8]: > 80 µM
IC50 [9]: > 15 µM
Compound: Cc1noc2c1-c1ccccc1C(c1ccc(Cl)cc1)=N[C@H]2CC(N)=O [PELABRESIB]
Activity [10]: Active
